Source: ChEMBL document CHEMBL1240356, “Efficacy profiles of daptomycin for treatment of invasive and noninvasive pulmonary infections with Streptococcus pneumoniae” (2010)
Calls of active or inactive are those of the source. The rule behind the calls is not given here.

Experiments:
[1] = system: Streptococcus pneumoniae; experiment: Antibacterial activity against 5 x 10^6 CFU Streptococcus pneumoniae serotype 2 infected in semitherapeutic C57BL/6 mouse model assessed as bacterial count in lung at 6 mg/kg, ip measured after 3 days post infection; type: functional; conditions: route intraperitoneal
[2] = system: Streptococcus pneumoniae; experiment: Antibacterial activity against 5 x 10^6 CFU Streptococcus pneumoniae serotype 2 infected in semitherapeutic C57BL/6 mouse model assessed as bacterial count in blood at 6 mg/kg, ip measured after 1 day post infection; type: functional; conditions: route intraperitoneal
[3] = system: Streptococcus pneumoniae; experiment: Antibacterial activity against 5 x 10^6 CFU Streptococcus pneumoniae serotype 2 infected in semitherapeutic C57BL/6 mouse model assessed as bacterial count in spleen at 6 mg/kg, ip measured after 1 day post infection; type: functional; conditions: route intraperitoneal
[4] = system: Streptococcus pneumoniae; experiment: Antibacterial activity against 5 x 10^6 CFU Streptococcus pneumoniae serotype 2 infected in semitherapeutic C57BL/6 mouse model assessed as reduction of bacteremia at 6 mg/kg, ip measured after 2 days post infection; type: functional, organism-based; set-up: dose 6 mg/kg
[5] = system: Streptococcus pneumoniae; experiment: Antibacterial activity against low dose 5 x 10^6 CFU Streptococcus pneumoniae serotype 2 infected in semitherapeutic C57BL/6 mouse model assessed as reduction of bacteremia at 6 mg/kg, ip measured after 3 dayss post infection; type: functional, organism-based; set-up: dose 6 mg/kg
[6] = system: Streptococcus pneumoniae; experiment: Antibacterial activity against low dose 5 x 10^6 CFU Streptococcus pneumoniae serotype 2 infected in semitherapeutic C57BL/6 mouse model assessed as reduction of bacteremia at 6 mg/kg, ip measured after 5 day post infection; type: functional, organism-based; set-up: dose 6 mg/kg
[7] = system: Streptococcus pneumoniae; experiment: Antibacterial activity against high dose 1.5 x 10^7 CFU Streptococcus pneumoniae serotype 2 infected in semitherapeutic C57BL/6 mouse model assessed as bacterial count in lung at 6 mg/kg, ip measured after 10 day post infection; type: functional; conditions: route intraperitoneal
[8] = system: Streptococcus pneumoniae; experiment: Antibacterial activity against high dose 1.5 x 10^7 CFU Streptococcus pneumoniae serotype 2 infected in semitherapeutic C57BL/6 mouse model assessed as bacterial count in liver at 6 mg/kg, ip measured after 1 day post infection; type: functional; conditions: route intraperitoneal
[9] = system: Streptococcus pneumoniae; experiment: Antibacterial activity against high dose 1.5 x 10^7 CFU Streptococcus pneumoniae serotype 2 infected in semitherapeutic C57BL/6 mouse model assessed as reduction of bacteremia at 6 mg/kg, ip measured after 5 day post infection; type: functional, organism-based; set-up: dose 6 mg/kg
[10] = system: Streptococcus pneumoniae; experiment: Antibacterial activity against high dose 1.5 x 10^7 CFU Streptococcus pneumoniae serotype 2 infected in semitherapeutic C57BL/6 mouse model assessed as reduction of bacteremia at 6 mg/kg, ip measured after 10 day post infection; type: functional, organism-based; set-up: dose 6 mg/kg
[11] = system: Streptococcus pneumoniae; experiment: Antibacterial activity against high dose 1.5 x 10^7 CFU Streptococcus pneumoniae serotype 2 infected in therapeutic C57BL/6 mouse model assessed as bacterial count in lung at 6 mg/kg, ip measured after 3 days post infection; type: functional; conditions: route intraperitoneal
[12] = system: Streptococcus pneumoniae; experiment: Antibacterial activity against high dose 1.5 x 10^7 CFU Streptococcus pneumoniae serotype 2 infected in therapeutic C57BL/6 mouse model assessed as bacterial count in lung at 6 mg/kg, ip measured after 4 days post infection; type: functional; conditions: route intraperitoneal
[13] = system: Streptococcus pneumoniae; experiment: Antibacterial activity against high dose 1.5 x 10^7 CFU Streptococcus pneumoniae serotype 2 infected in therapeutic C57BL/6 mouse model assessed as bacterial count in lung at 6 mg/kg, ip measured after 5 day post infection; type: functional; conditions: route intraperitoneal
[14] = system: Streptococcus pneumoniae; experiment: Antibacterial activity against low dose 5 x 10^6 CFU Streptococcus pneumoniae serotype 19 infected in semitherapeutic C57BL/6 mouse model assessed as bacterial count in lung at 6 mg/kg, ip measured after 1 day post infection; type: functional; conditions: route intraperitoneal
[15] = system: Streptococcus pneumoniae; experiment: Antibacterial activity against low dose 5 x 10^6 CFU Streptococcus pneumoniae serotype 19 infected in semitherapeutic C57BL/6 mouse model assessed as bacterial count in lung at 6 mg/kg, ip measured after 3 days post infection; type: functional; conditions: route intraperitoneal
[16] = system: Streptococcus pneumoniae; experiment: Antibacterial activity against low dose 5 x 10^6 CFU Streptococcus pneumoniae serotype 19 infected in semitherapeutic C57BL/6 mouse model assessed as bacterial count in lung at 6 mg/kg, ip measured after 5 day post infection; type: functional; conditions: route intraperitoneal
[17] = system: Streptococcus pneumoniae; experiment: Antibacterial activity against low dose 5 x 10^6 CFU Streptococcus pneumoniae serotype 19 infected in semitherapeutic C57BL/6 mouse model assessed as bacteremic mouse at 6 mg/kg, ip measured after 1 day post infection; type: functional, organism-based; set-up: dose 6 mg/kg
[18] = system: Streptococcus pneumoniae; experiment: Antibacterial activity against low dose 5 x 10^6 CFU Streptococcus pneumoniae serotype 19 infected in semitherapeutic C57BL/6 mouse model assessed as bacteremic mouse at 6 mg/kg, ip measured after 3 days post infection; type: functional, organism-based; set-up: dose 6 mg/kg
[19] = system: Streptococcus pneumoniae; experiment: Antibacterial activity against low dose 5 x 10^6 CFU Streptococcus pneumoniae serotype 19 infected in semitherapeutic C57BL/6 mouse model assessed as bacteremic mouse at 6 mg/kg, ip measured after 5 day post infection; type: functional, organism-based; set-up: dose 6 mg/kg
[20] = system: Streptococcus pneumoniae; experiment: Antibacterial activity against high dose 1.5 x 10^7 CFU Streptococcus pneumoniae serotype 19 infected in semitherapeutic C57BL/6 mouse model assessed as bacterial count in lung at 6 mg/kg, ip measured after 1 day post infection; type: functional; conditions: route intraperitoneal
[21] = system: Streptococcus pneumoniae; experiment: Antibacterial activity against high dose 1.5 x 10^7 CFU Streptococcus pneumoniae serotype 19 infected in semitherapeutic C57BL/6 mouse model assessed as bacterial count in lung at 6 mg/kg, ip measured after 2 days post infection; type: functional; conditions: route intraperitoneal
[22] = system: Streptococcus pneumoniae; experiment: Antibacterial activity against high dose 1.5 x 10^7 CFU Streptococcus pneumoniae serotype 19 infected in semitherapeutic C57BL/6 mouse model assessed as reduction of bacteremia at 6 mg/kg, ip measured after 3 days post infection; type: functional, organism-based; set-up: dose 6 mg/kg
[23] = system: Streptococcus pneumoniae; experiment: Antibacterial activity against high dose 1.5 x 10^7 CFU Streptococcus pneumoniae serotype 19 infected in semitherapeutic C57BL/6 mouse model assessed as bacteremic mice at 6 mg/kg, ip measured after 4 days post infection; type: functional, organism-based; set-up: dose 6 mg/kg
[24] = system: Streptococcus pneumoniae; experiment: Antibacterial activity against 1.5 x 10^7 CFU Streptococcus pneumoniae serotype 2 infected in therapeutic C57BL/6 mouse model assessed as survival rate at 20 mg/kg, ip qd beginning 2 days post infection measured after 3 days post infection; type: functional; conditions: route intraperitoneal
[25] = system: Streptococcus pneumoniae; experiment: Antibacterial activity against 1.5 x 10^7 CFU Streptococcus pneumoniae serotype 19 infected in therapeutic C57BL/6 mouse model assessed as survival rate at 6 mg/kg, ip qd beginning at time of infection measured after 6 days post infection; type: functional; conditions: route intraperitoneal
[26] = system: Streptococcus pneumoniae; experiment: Antibacterial activity against 1.5 x 10^7 CFU Streptococcus pneumoniae serotype 2 infected in therapeutic C57BL/6 mouse model assessed as effect on lung permeability at 6 mg/kg, ip measured on day 3 post infection; type: functional, organism-based; set-up: dose 6 mg/kg
[27] = system: Streptococcus pneumoniae; experiment: Antibacterial activity against 1.5 x 10^7 CFU Streptococcus pneumoniae serotype 19 infected in therapeutic C57BL/6 mouse model assessed as effect on leukocytes infiltration in BALF at 6 mg/kg, ip measured on day 3 post infection; type: functional, organism-based; set-up: dose 6 mg/kg
[28] = system: Streptococcus pneumoniae; experiment: Antibacterial activity against 1.5 x 10^7 CFU Streptococcus pneumoniae serotype 2 infected in therapeutic C57BL/6 mouse model assessed as increase in compound level in BALF at 6 mg/kg, ip measured on day 3 post infection; type: functional, organism-based; set-up: dose 6 mg/kg
[29] = system: Streptococcus pneumoniae; experiment: Antibacterial activity against 1.5 x 10^7 CFU Streptococcus pneumoniae serotype 19 infected in therapeutic C57BL/6 mouse model assessed as increase in serum compound level at 6 mg/kg, ip measured on day 3 post infection; type: functional, organism-based; set-up: dose 6 mg/kg
[30] = system: Streptococcus pneumoniae; experiment: Antibacterial activity against 1.5 x 10^7 CFU Streptococcus pneumoniae serotype 2 infected in therapeutic C57BL/6 mouse model assessed as increase in serum compound level at 6 mg/kg, ip measured on day 3 post infection; type: functional, organism-based; set-up: dose 6 mg/kg

## CCCCCCCCCC(=O)N[C@@H](Cc1c[nH]c2ccccc12)C(=O)N[C@H](CC(N)=O)C(=O)N[C@@H](CC(=O)O)C(=O)N[C@@H]1C(=O)NCC(=O)N[C@@H](CCCN)C(=O)N[C@@H](CC(=O)O)C(=O)N[C@H](C)C(=O)N[C@@H](CC(=O)O)C(=O)NCC(=O)N[C@H](CO)C(=O)N[C@@H]([C@H](C)CC(=O)O)C(=O)N[C@@H](CC(=O)c2ccccc2N)C(=O)O[C@@H]1C
[1]
  log10cfu: 3.8
[2]
  log10cfu: 2
[3]
  log10cfu: 2.2
[4]
  Activity: Active
[5]
  Activity: Active
[6]
  Activity: Active
[7]
  log10cfu: 2.9
[8]
  log10cfu: 1.2
[9]
  Activity: Active
[10]
  Activity: Active
[11]
  log10cfu: 5.5
[12]
  log10cfu: 2.9
[13]
  log10cfu: 2.8
[14]
  log10cfu: 6.3
[15]
  log10cfu: 5.5
[16]
  log10cfu: 3.5
[17]
  Activity: Active
[18]
  Activity: Active
[19]
  Activity: Active
[20]
  log10cfu: 6.4
[21]
  log10cfu: 6.2
[22]
  Activity: Active
[23]
  Activity: Active
[24]
  Activity: 60%
[25]
  Activity: 40%
[26]
  Activity: Active
[27]
  Activity: Active
[28]
  Activity: inactive
[29]
  Activity: Active
[30]
  Activity: Active
